Laboratory results taken from PubChem BioAssay (NCI).
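Values below derive from 48-hour exposures of cells grown in 96-well plates, with endpoints linearly interpolated between the two concentrations bracketing the appropriate inhibition level. The concentration for full growth arrest is given as TGI.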

Experiments:
Test in all cases: NCI anticancer screen, dose series, 48 h
786-0 renal = test system: 786-0 renal
ACHN renal = test system: ACHN renal
PC-3 prostate = test system: PC-3 prostate
IGROV1 ovarian = test system: IGROV1 ovarian
CCRF-CEM leukemia = test system: CCRF-CEM leukemia
RPMI-8226 leukemia = test system: RPMI-8226 leukemia
HCC-2998 colon = test system: HCC-2998 colon
T-47D breast = test system: T-47D breast
MOLT-4 leukemia = test system: MOLT-4 leukemia
DU-145 prostate = test system: DU-145 prostate
HOP-62 NSCLC = test system: HOP-62 NSCLC
M14 melanoma = test system: M14 melanoma
MDA-MB-231 breast = test system: MDA-MB-231 breast
NCI-H522 lung = test system: NCI-H522 lung

Compound	TGI (786-0 renal) [µM]	TGI (ACHN renal) [µM]	TGI (PC-3 prostate) [µM]	TGI (IGROV1 ovarian) [µM]	TGI (CCRF-CEM leukemia) [µM]	TGI (RPMI-8226 leukemia) [µM]	TGI (HCC-2998 colon) [µM]	TGI (T-47D breast) [µM]	TGI (MOLT-4 leukemia) [µM]	TGI (DU-145 prostate) [µM]	TGI (HOP-62 NSCLC) [µM]	TGI (M14 melanoma) [µM]	TGI (MDA-MB-231 breast) [µM]	TGI (NCI-H522 lung) [µM]
c1ccc2c(c1)nc1n2CNC1	> 100	> 100	> 100	> 100	> 100	> 100	> 100	> 100	> 100	> 100	> 100	> 100	> 100	–
O=c1c2cc(S(=O)(=O)O)ccc2nc(COc2ccc(Oc3ccc(Cl)cc3Cl)cc2)n1-c1ccc(Cl)cc1Oc1c(Cl)cccc1Cl	64.6	68.5	> 100	> 100	> 100	64.7	–	> 100	> 100	> 100	> 100	55.8	–	48.4
CCOP(=O)(O)C1C(CO)OC(n2ccc(=O)[nH]c2=O)C1O (centres undefined)	> 100	> 100	> 100	> 100	> 100	> 100	> 100	> 100	> 100	–	> 100	> 100	> 100	> 100
COC1(OC)CC(CO)(CNc2nc(N)nc(Cl)c2/C=N\O)C1	> 100	> 100	> 100	> 100	> 100	> 100	> 100	–	85.4	> 100	> 100	–	> 100	> 100
C=C(CC[C@@H](C)[C@H]1CC[C@@]2(C)C3=C(CC[C@]12C)[C@@]1(C)CC[C@H](O)[C@@H](C)C1CC3)C(C)C (some centres undefined)	2.07	2.55	2.28	8.32	2.22	–	2.7	–	2.49	–	1.9	2.36	2.74	–
COC(=O)C(NC(=O)c1ccccc1)c1ccco1 (centres undefined)	> 100	> 100	> 100	> 100	> 100	> 100	> 100	> 100	> 100	> 100	> 100	> 100	–	–
CCCCCCCCCCN(CCCCCCCCCC)C(=O)COc1c2cc(C(C)(C)C)cc1Cc1cc(C(C)(C)C)cc(c1OCC(=O)N(CCCCCCCCCC)CCCCCCCCCC)Cc1cc(C(C)(C)C)cc(c1OCC(=O)N(CCCCCCCCCC)CCCCCCCCCC)Cc1cc(C(C)(C)C)cc(c1OCC(=O)N(CCCCCCCCCC)CCCCCCCCCC)C2	23.3	28.1	21.8	24.8	14.1	–	22.3	32.3	6.34	31.8	31.4	8.01	33.2	10.2
CSC1=N/C(=C\c2ccccc2)C(=O)N1CN1CCCCC1	> 100	> 100	> 100	> 100	> 100	> 100	–	–	> 100	> 100	> 100	> 100	> 100	> 100
CCn1c2ccccc2n2c(=O)c3c(c(C#N)c12)CCCC3	> 100	> 100	> 100	> 100	> 100	–	> 100	> 100	> 100	> 100	–	> 100	> 100	> 100
